Measured values as given in paper PMC6270258, “Diosgenone Synthesis, Anti-Malarial Activity and QSAR of Analogues of This Natural Product” (Molecules, 2013).
Where two headings read alike, the source gives them in different places.

What was measured:
[1] = Cytotoxicity, MTT colorimetric test; assay type: cell-based, human; details: human
Description: (§1) Steroidal derivatives’ cytotoxicity regarding the HepG2-A16 cell line was evaluated by colorimetric test using 3-(4,5-dimethylthiazolyl-2)-2,5-diphenyltetrazolium bromide (MTT), as described by Mosmann [28]. […] An aliquot of each derivative dilution (100 μL, 1,000, 100, 10 and 1 μg/mL) was then added to the wells in triplicate. […] The DMSO diluent agent was evaluated in complete medium and negative controls (untreated cells) were included. Absorbance was measured at 550 nm and statistical Prism software version 5.0 (GraphPad Software Inc., La Jolla, CA, USA) was used for calculating toxic concentration (CC50). Amphotericin B was used as positive control in this assay.

[2] = system: Plasmodium falciparum FCB-2 (chloroquine-resistant) strain; test: In vitro antiplasmodial activity, [3H]hypoxanthine incorporation, FCB-2 strain; assay type: cell-based; details: for RI (resistance index): IC50 FCB-2 (resistant strain)/IC50 NF-54 (sensitive strain); for antiplasmodial activity (in words): P. falciparum FCB-2 and NF-54 strains, compared to diosgenone or parent; for IC50: Plasmodium falciparum, 48 h
Description: (§2) A 10 mg/mL stock solution was prepared. […] A 50 μL sample was extracted from this solution and adjusted to 1,000 μL with RPMI-1640 without hypoxanthine until a final 500 μg/mL concentration was reached. The P. falciparum FcB-2 (Colombia) and NF54 (The Netherlands) strains were used for assessing anti-malarial activity.
(§3) Trager and Jensen’s method was used for culturing strains [24, 25]. The methods described by Desjardins et al. [26] were used for evaluating the structural analogs’ in vitro antiplasmodial activity, with some modifications. […] 1.0 µCi/mL of [3H] hypoxanthine (MP Biomedicals, Santa Ana, CA, USA) was added to each well and the plates were then incubated for 48 h at 37 °C in 5% CO2, 5% O2 in a balanced N2 atmosphere. Parasite DNA was harvested and radioactivity was determined by automatic TDCR liquid scintillation counter plate (Chameleon, Hidex Oy, Finland). Experiments were repeated twice with two or three replicates each. A nonlinear regression sigmoidal dose-response (variable slope) model was used to estimate concentration inhibiting 50% growth (IC50) values for each derivative.

[3] = system: Plasmodium falciparum NF-54 strain; test: In vitro antiplasmodial activity, [3H]hypoxanthine incorporation, NF-54 strain; assay type: cell-based; details: 48 h, read-out: IC50 μM ± SD NF-54
Description: as §2, §3

[4] = system: HepG2-A16 human hepatoma cells; test: Cytotoxicity, MTT colorimetric test; assay type: cell-based; details: for SI (selectivity index): CC50 HepG2/IC50 parasite FCB-2
Description: as §1

[5] = HepG2-A16 human hepatoma cells, HepG2-A16 cells, MTT, 48 h, read-out: CC50
[6] = P. falciparum FCB-2 chloroquine-resistant strain, read-out: IC50 μM ± SD FCB-2
[7] = P. falciparum NF-54 chloroquine-sensitive strain
[8] = HepG2-A16 cells, MTT, 48 h, read-out: CC50

Compound	CC50 at 48 h [1, 5]	RI (resistance index) [2]	antiplasmodial activity (in words) [2]	IC50 [2, 6]	IC50 [3, 7]	CC50 at 48 h [1]	SI (selectivity index) [4]	melting point	cytotoxicity (in words) ([4]; HepG2-A16 cells)	IC50 ([2]; read-out: IC50 μM ± SD FCB-2, P. falciparum FCB-2 chloroquine-resistant strain, 48 h)	IC50 [3]	cytotoxicity (in words) [4]	CC50 at 48 h [1, 8]	IC50 ([2]; read-out: IC50 μM ± SD FCB-2)
C[C@@H]1[C@H](O)[C@@H](C)/C=C/C=C/C=C/C=C/C=C/C=C/C=C/[C@H](O[C@@H]2O[C@H](C)[C@@H](O)[C@H](N)[C@@H]2O)C[C@@H]2O[C@](O)(C[C@@H](O)C[C@@H](O)[C@H](O)CC[C@@H](O)C[C@@H](O)CC(=O)O[C@H]1C)C[C@H](O)[C@H]2C(=O)O [AF-B, amphotericin B, reference compound]	39.6 µM	–	–	–	–	–	–	–	–	–	–	–	–	–
CC1=CC[C@@]2(C)C(=C1)CC[C@H]1[C@@H]3C[C@@H]4O[C@]5(CC[C@@H](C)CO5)[C@@H](C)[C@@H]4[C@@]3(C)CC[C@@H]12 [Compound 7, (25R)-3-Methyl-spirostan-2,4-diene]	–	2.0	marginal activity compared to diosgenone	70.4 ± 5.5 µM	34.6 ± 3.3 µM	217 µM	3.1	172 to 174 °C	–	–	–	–	–	–
C[C@@H]1CC[C@@]2(OC1)O[C@H]1C[C@H]3[C@@H]4CC=C5C=CCC[C@]5(C)[C@H]4CC[C@]3(C)[C@H]1[C@@H]2C [Compound 19, (25R)-3,5-Spirostadiene]	> 2520 µM	1.2	neither active	438 ± 12 µM	370 ± 8.3 µM	–	–	–	nor toxic	–	–	–	–	–
CC(=O)OC1C[C@H]2[C@@H]3CCC4=CC(O)CC[C@]4(C)[C@H]3CC[C@]2(C)[C@H]1[C@H](C)C(O)CC[C@@H](C)CO (stereo partly drawn) [Compound 24, (25R)-16-Acetoxy-4-cholesten-3,22,26-triol]	–	0.9	–	95 ± 7.3 µM	101 ± 9.9 µM	306 µM	3.2	144 to 146 °C	–	–	–	–	–	–
C[C@@H]1CC[C@@]2(OC1)O[C@H]1C[C@H]3[C@@H]4CCC5CC(=O)CC[C@]5(C)[C@H]4CC[C@]3(C)[C@H]1[C@@H]2C (stereo partly drawn) [Compound 11, (25R)-Spirostan-3-one]	> 916 µM	–	inactive against both P. falciparum strains	> 482 µM	> 482 µM	–	–	–	–	–	–	–	–	–
CC(=O)[C@@]1(O)CC[C@H]2[C@@H]3CCC4=CC(=O)CC[C@]4(C)[C@H]3CC[C@@]21C [Compound 6, 17-hydroxy-4-pregnene-3,20-dione, reference compound]	> 1140 µM	1.0	inactive	–	–	–	–	–	–	> 303 µM	> 303 µM	–	–	–
Cc1ccc(S(=O)(=O)NN=C2C=C3CCC4C(CCC5(C)C4CC4OC6(CCC(C)CO6)C(C)C45)C3(C)CC2)cc1 [Compound 9, (25R)-3-p-Toluenehydrazine-spirostan-4-ene]	–	1.1	marginal activity compared to diosgenone	56.1 ± 0.3 µM	52.5 ± 7.7 µM	> 1170 µM	–	148 to 150 °C	–	–	–	–	–	–
CC(=O)OC1C[C@H]2[C@@H]3CCC4=CC(=O)CC[C@]4(C)[C@H]3CC[C@]2(C)[C@H]1[C@H](C)C(=O)CC[C@@H](C)C=O (stereo partly drawn) [Compound 21, (25R)-16-Acetoxy-4-cholesten-3,22-dione-26-al]	–	1.3	–	92.2 ± 12.3 µM	70.8 ± 0.8 µM	424 µM	4.6	–	–	–	–	–	–	–
CC(=O)OC1CC[C@@]2(C)C(=CC[C@H]3[C@@H]4C[C@@H]5O[C@]6(CC[C@@H](C)CO6)[C@@H](C)[C@@H]5[C@@]4(C)CC[C@@H]32)C1 (stereo partly drawn) [Compound 16, (25R)-3-Acetoxy-spirostan-5-ene]	–	–	neither active	> 438 µM	> 438 µM	> 2190 µM	–	182 to 184 °C	–	–	–	nor toxic	–	–
C[C@@H]1CC[C@@]2(OC1)O[C@H]1C[C@H]3[C@@H]4CC=C5C[C@@H](O)CC[C@]5(C)[C@H]4CC[C@]3(C)[C@H]1[C@@H]2C [Compound 1, (25R)-5-spirosten-3β-ol, reference compound]	–	–	lacked antiplasmodial activity	> 482 µM	> 482 µM	–	–	–	–	–	–	–	1110 µM	–
C[C@@H]1CC[C@@]2(OC1)O[C@H]1C[C@H]3[C@@H]4CC5OC56CC(O)CC[C@]6(C)[C@H]4CC[C@]3(C)[C@H]1[C@@H]2C (stereo partly drawn) [Compound 17, (25R)-5,6-Epoxy-spirostan-3-ol]	–	2.2	neither active	> 409 µM	184 µM	> 2050 µM	–	97 to 99 °C	–	–	–	nor toxic	–	–
C[C@H](C(=O)CC[C@@H](C)C=O)[C@H]1C(=O)C[C@H]2[C@@H]3CCC4=CC(=O)CC[C@]4(C)[C@H]3CC[C@]12C [Compound 25]	–	1.3	–	–	–	–	0.4	–	–	–	95.9 ± 8.3 µM	–	45.2 µM	123 ± 12.8 µM
C[C@@H]1CC[C@@]2(OC1)O[C@H]1C[C@H]3[C@@H]4CCC5=CC(O)CC[C@]5(C)[C@H]4CC[C@]3(C)[C@H]1[C@@H]2C (stereo partly drawn) [Compound 13, (25R)-4-Spirosten-3-ol]	> 2410 µM	0.9	marginal activity compared to diosgenone	63.2 ± 0.3 µM	71.9 ± 0.3 µM	–	–	–	–	–	–	–	–	–
CC(=O)OC1C[C@H]2[C@@H]3CCC4CC(=O)CC[C@]4(C)[C@H]3CC[C@]2(C)[C@H]1[C@H](C)C(=O)CC[C@@H](C)CO (stereo partly drawn) [Compound 22, (25R)-16-Acetoxy-26-hydroxy-cholestan-3,22-dione]	–	1.5	–	94.2 ± 5.3 µM	62.1 ± 8.9 µM	82.4 µM	0.9	–	–	–	–	–	–	–
C[C@@H](CI)CCC(=O)[C@@H](C)[C@H]1C(=O)CC2C3CCC4=CC(=O)CC[C@]4(C)C3CC[C@@]21C (stereo partly drawn) [Compound 15, (25R)-26-Iodine-cholest-4-en-3,16,22-trione]	–	1.3	–	2.9 ± 0.3 µM	2.2 ± 0.4 µM	90.2 µM	31.1	148 to 150 °C	–	–	–	–	–	–
CC(=O)OC[C@H](C)CCC(=O)[C@@H](C)[C@H]1C(OC(C)=O)C[C@H]2[C@@H]3CCC4=CC(=O)CC[C@]4(C)[C@H]3CC[C@]12C (stereo partly drawn) [Compound 23, (25R)-16,26-Diacetoxy-4-cholesten-3,22-dione]	–	28.8	–	17.3 ± 1.4 µM	0.6 ± 0.9 µM	281 µM	16.2	–	–	–	–	less toxic	–	–
CC(=O)[C@H]1CC[C@H]2[C@@H]3CCC4=CC(=O)CC[C@]4(C)[C@H]3CC[C@]12C [Compound 5, 4-Pregnene-3,20-dione, reference compound]	–	1.5	displayed antiplasmodial activity	38.2 ± 1.2 µM	25.4 ± 1.6 µM	–	5.0	–	–	–	–	–	193 µM	–
C[C@@H]1CC[C@@]2(OC1)O[C@H]1C[C@H]3[C@@H]4CCC5=CC(O)(Cc6ccccc6)CC[C@]5(C)[C@H]4CC[C@]3(C)[C@H]1[C@@H]2C (stereo partly drawn) [Compound 8, (25R)-3-Benzyl-spirostan-4-en-3-ol]	–	–	inactive against both P. falciparum strains	> 396 µM	> 396 µM	> 1980 µM	–	203 to 205 °C	–	–	–	–	–	–
CC(=O)O[C@H]1CC[C@@]2(C)C(=CCC3C4C[C@H](OC(C)=O)C(C(C)C5=C(C(C)=O)C[C@@H](C)CO5)[C@@]4(C)CCC32)C1 (stereo partly drawn) [Compound 20, (25R)-23-Acetyl-3,16-diacetoxy-22,23-pyran-cholesta-5,22-diene]	–	–	neither active	> 380 µM	> 380 µM	> 1900 µM	–	–	–	–	–	nor toxic	–	–
C[C@@H]1CC[C@@]2(OC1)O[C@H]1C[C@H]3[C@@H]4CCC5=CC(=O)C=C[C@]5(C)[C@H]4CC[C@]3(C)[C@H]1[C@@H]2C [Compound 12, (25R)-1,4-Spirostadien-3-one]	–	1.2	–	36 ± 2.3 µM	29.2 ± 1.1 µM	> 487 µM	–	181 to 183 °C	–	–	–	–	–	–
